Test results taken from US5567704A, “R-enatiomerically pure hydroxylated xanthine compounds to treat baldness” (priority 1995, dated 1996).

Columns and labels:
[1] = tested on: lysophosphatidic acid acyl transferase (LPAAT); experiment: in vitro inhibition of LPAAT in 3T3 Ras-transformed fibroblasts stimulated with IL-1β; type: cell-based; settings: 3T3 Ras-transformed fibroblasts, IL-1β, FIG. 17
Experimental: FIG. 17 illustrates a comparison of CT1501R, its S isomer CT1501S, and PTX on in vitro inhibition of lysophosphatidic acid acyl transferase (LPAAT), an enzyme involved in second messenger signaling. […] LPAAT activity was determined in 3T3 Ras-transformed fibroblasts stimulated with IL-1β.
One in vitro assay measures inhibition of the relevant enzymes lysophosphatidic acid acyltransferase (LPAAT) and phosphatidic acid phosphoryl hydrolase (PAPH). The assay involves incubating of target cells with a primary stimulus (e.g., a variety of cytokines, growth factors, oncogene products, putative therapeutic agents, irradiation, viral infection, toxins, bacterial infection and the products thereof, and any stimulus which, if not counteracted, has a deleterious effect on the target cell) in the presence or absence of an inventive compound at varying dosage levels. Target cells include, for example, subcellular entities, such as, microsomes derived from mesenchymal and/or ectodermal cells, particularly microsomes from marrow stromal cells or human or rat mesangial cells; microsomes or synaptosomes derived from brain; plasma membrane-enriched microsomes, plasma membranes derived as described in Bursten et at. (J. Biol. Chem. 226:20732-20743, 1991 ), or detergent-solubilized microsomes; synaptosomes, and membranes or other cell preparations solubilized using, for example, NP-40, Miranal, SDS or other neutral detergents; and detergent-solubilized, recombinant, or further purified preparations of cell proteins, including the proteins LPAAT and/or PAPH. After incubation for short periods of time, cell lipids are extracted and assayed by […] according to standard procedures. Briefly, lipids are extracted using, for example, chloroform:methanol 2:1 (v/v), and the extracts are then subjected to HPLC as described in Bursten and Harris, Biochemistry 30:6195-6203, 1991. A Rainin® mu-Porasil column is used with a 3:4 hexane:propanol organic carrier and a 1-10% water gradient during the first 10 minutes of separation. Detection of the peaks in the elution pattern is by absorption in the range of ultraviolet which detects isolated double bonds. The relevant peaks of unsaturated PA and DAG are shown in the elution pattern. It is important to note that the assay method permits discrimination between various forms of PA and DAG so that those relevant to the pathway affected by the (R) or (S) compounds of the invention can be measured directly. Confirmation of the nature of the acyl substituents of these components is accomplished using fast-atom bombardment mass spectroscopy. Thus, the relevant unsaturated (non-arachidonic) PA and DAG subspecies may be detected. The time periods employed are 5-60 seconds after stimulation with the primary stimulus, such as a cytokine. This technique permits assessment of the levels of various lipid components as a function of time.

[2] = tested on: smooth muscle cell; experiment: smooth muscle proliferation stimulated by PDGF and IL-1; type: cell-based; settings: PDGF and IL-1; drug added two hours prior, FIG. 4
From the text: CT1501R and PTX were separately added to the cells two hours prior to activation with PDGF and IL-1.

[3] = metabolized in humans; cited from earlier work
[4] = tested on: PBMC (peripheral blood mononuclear cells); experiment: two-way mixed lymphocyte reaction (MLR); type: cell-based, human; settings: FIG. 1
From the text: Various in vitro assays can be used to measure effects of the inventive compounds to module immune activity and have antitumor activity using a variety of cellular types. For example, a mixed lymphocyte reaction (MLR) provides a valuable screening tool to determine biological activity of each inventive compound. In the MLR, PBMCs (peripheral blood mononuclear cells) are obtained by drawing whole blood from healthy volunteers in a heparinized container and diluted with an equal volume of hanks balanced salt solution (HBSS). This mixture is layered on a sucrose density gradient, such as a Ficoll-Hypaque® gradient (specific gravity 1.08), and centrifuged at 1000× g for 25 minutes at room temperature or cooler. PBMC are obtained from a band at a plasma-Ficoll interface, separated and washed at least twice in a saline solution, such as HBSS. Contaminating red cells are lysed, such as by ACK lysis for 10 min at 37° C., and the PBMCs are washed twice in HBSS. The pellet of purified PBMCs is resuspended in complete medium, such as RPMI 1640 plus 20% human inactivated serum. Proliferative response of PBMC to allogeneic stimulation is determined in a two-way MLR performed in a 96-well microtiter plate. […] At the conclusion of the incubation tritiated thymidine is added (for example, 1 μCi/well of 40 to 60 Ci/mmole) and proliferation determined by liquid scintillation counting. […]

[5] = tested on: stromelysin/PUMP-1; experiment: PUMP-1 activity induced by IL-1; type: cell-based; settings: induced by 100 U/ml of IL-1
From the text: Metalloproteases mediate tissue damage such as glomerular diseases of the kidney, joint destruction in arthritis, and lung destruction in emphysema, and play a role in tumor metastases. Three examples of metalloproteases include a 92 kD type V gelatinase induced by TNF, IL-1 and PDGF plus bFGF, a 72 kD type IV collagenase that is usually constitutive and induced by TNF or IL-1, and a stromelysin/PUMP-1 induced by TNF and IL-1. The inventive compounds can inhibit TNF or IL-1 induction of the 92 kD type V gelatinase inducable metalloprotease. Moreover, CT 1501R reduced PUMP- 1 activity induced by 100 U/ml of IL-1 to 15% of its control levels. […] Accordingly, the inventive compounds prevent induction of certain metalloproteases induced by IL-1 or TNF and are not involved with constitutively produced proteases (e.g., 72 kD type IV collagenase) involved in normal tissue remodeling.

[6] = tested on: nu/nu mice; experiment: nude mouse hair studies, topical application; type: in vivo; settings: second experiment; topical twice daily, 34 days
From the text: This example illustrates nude mouse hair studies involving topical application of CT1501R. Six to eight week old, female, nu/nu mice from Charles River Laboratories were housed at Biosupport Research Support Services (Seattle, Wash.) in autoclaved micro isolator units with hyperchlorinated autoclaved water, irradiated rodent chow and kept under a laminar flow hood. Caging was changed weekly, and water was changed twice weekly. The mice were acclimated for 5 days before beginning each study.
The first topical formulation was prepared by adding CT1501R to a heated hydrophilic ointment (USP) at a 1% concentration, and allowed to solidify.
Nude mice were painted twice daily for 16 days with the first topical formulation of CT1501R on the left flank and another compound in the same base on the right flank with sterile applicators. Mice were handled under the laminar flow hood with applicator wearing face mask and sterile gloves. After 16 days, one mouse was sacrificed by cervical dislocation and skin biopsies were taken of the treated areas of the shoulder/flank and from the non-treated area of the dorsal pelvis (rump). Specimens were placed in 10% buffered formalin solution. Biopsies were sent to a veterinary dermopathologist for histopathology. Six weeks following treatment, a second mouse was euthanatized and biopsied the same as the first. Samples were sent for histopathology.
In a second experiment, topical application of CT1501R was performed along with a commercial topical minoxidil preparation (Rogaine®, Upjohn) that is approved for a hair growth indication. Five to six week old, female, nu/nu mice from Bantin and Kingman Universal were housed at Biosupport Research Support Services (Seattle, Wash.) in autoclaved micro isolator units with hyper chlorinated autoclaved water, irradiated rodent chow and kept under a laminar flow hood. Caging was changed weekly, and water was changed twice weekly. Mice were acclimated for 7 days before beginning study.
CT1501R, and two other compounds were prepared in a topical formulation of 60% ETOH, 10% water and 30% PEG along with vehicle only. Minoxidil was purchased as the commercial preparation Rogaine® from a local pharmacy. Rogaine® is sold in the same formulation base. Mice were identified by unique tail markings specific for each test article. Two mice per group were treated with CT1501R and another compound. One mouse was treated with each of vehicle and minoxidil. The mice were handled under the laminar flow hood with the applicator wearing face mask and sterile gloves. Each mouse was treated twice daily with a separate sterile applicator to avoid contamination of the solutions or the mice. All mice were applied a strip of appropriate test article along the center line of the back from the base of the skull to the base of the tail, approximately 1.5 cm wide. After 34 days all mice were euthanatized by overdose of halothane anesthesia. Skin biopsies were taken from each of the 7 mice over the nape of the neck between the scapulas (approximate size was 1×1.5 cm). All specimens were blotted on gauze to remove blood and fluids, affixed to a cut piece of wooden tongue depressor, and placed specimen side down in separately marked containers with 10% buffered formalin. Specimens were shipped to a veterinary dermatopathologist for qualitative histopathological determinations.

C[C@H](O)CCCCn1c(=O)c2c(ncn2C)n(C)c1=O [CT1501S]
inhibition of LPAAT enzyme activity [1]: only CT1501R significantly inhibited enzyme activity

CC(=O)CCCCn1c(=O)c2c(ncn2C)n(C)c1=O [PTX, 1-(5-oxohexyl)-3,7-dimethylxanthine, reference compound]
inhibition of smooth muscle cell proliferation [2]: inhibited smooth muscle cell proliferation at the higher doses tested
metabolic conversion of PTX [3]: converted almost exclusively to the S enantiomer of MI
proliferative response of PBMC to allogeneic stimulation [4]: showed dose-response activity
inhibition of LPAAT enzyme activity [1]: only CT1501R significantly inhibited enzyme activity
PUMP-1 activity, % of control levels [5]: 95%

Nc1cc(N2CCCCC2)nc(N)[n+]1[O-] [minoxidil, reference compound]
hair follicles, subjective histopathological examination [6]: fair response to treatment
